Patent US7494714B2, “Surfaces that resist the adsorption of biological species” (President & Fellows of Harvard College, priority 2000, dated 2009)
Read-outs that look alike come from different tables or passages of the source. Where a SMILES comes first, the peptide text is derived from it. [ ]: non-standard residue; d: D form. Sar = CNCC(=O)O

Tests used:
[1] = Contact angle of deionized water under cyclooctane; type: physicochemical
fibrinogen = biological target: T1, fibrinogen (Bos taurus, UniProt P02672+P02676+P12799); experiment: SPR adsorption of fibrinogen to SAMs / grafted polymer films; type: binding, bovine; details: for % ML 30 min / dR/dt on / % ML 3 min: fibrinogen; for % ML 30 min / dR/dt on / % Fib off: single-component SAMs (a) and mixed SAMs (b); for % ML 3 min: single-component SAMs (a, RSH) and mixed SAMs (b, RNH2)
T1 sequence (P02672 20-615): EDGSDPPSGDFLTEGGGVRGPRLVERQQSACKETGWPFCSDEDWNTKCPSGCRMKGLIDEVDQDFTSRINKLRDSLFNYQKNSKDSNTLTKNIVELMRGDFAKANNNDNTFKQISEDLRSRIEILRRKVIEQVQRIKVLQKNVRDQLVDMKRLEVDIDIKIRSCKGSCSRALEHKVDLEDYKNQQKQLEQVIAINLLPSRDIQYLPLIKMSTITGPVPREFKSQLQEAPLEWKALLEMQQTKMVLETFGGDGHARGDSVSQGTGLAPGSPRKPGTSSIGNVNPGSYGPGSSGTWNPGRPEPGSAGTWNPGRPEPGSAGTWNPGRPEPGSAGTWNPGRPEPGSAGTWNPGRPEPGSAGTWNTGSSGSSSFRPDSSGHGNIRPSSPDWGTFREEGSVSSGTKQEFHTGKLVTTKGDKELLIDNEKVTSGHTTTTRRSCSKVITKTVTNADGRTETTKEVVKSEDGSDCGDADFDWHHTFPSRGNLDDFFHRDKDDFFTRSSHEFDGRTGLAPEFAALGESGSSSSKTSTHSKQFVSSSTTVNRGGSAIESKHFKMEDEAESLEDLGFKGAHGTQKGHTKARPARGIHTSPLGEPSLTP
T1 sequence (P02676 1-468): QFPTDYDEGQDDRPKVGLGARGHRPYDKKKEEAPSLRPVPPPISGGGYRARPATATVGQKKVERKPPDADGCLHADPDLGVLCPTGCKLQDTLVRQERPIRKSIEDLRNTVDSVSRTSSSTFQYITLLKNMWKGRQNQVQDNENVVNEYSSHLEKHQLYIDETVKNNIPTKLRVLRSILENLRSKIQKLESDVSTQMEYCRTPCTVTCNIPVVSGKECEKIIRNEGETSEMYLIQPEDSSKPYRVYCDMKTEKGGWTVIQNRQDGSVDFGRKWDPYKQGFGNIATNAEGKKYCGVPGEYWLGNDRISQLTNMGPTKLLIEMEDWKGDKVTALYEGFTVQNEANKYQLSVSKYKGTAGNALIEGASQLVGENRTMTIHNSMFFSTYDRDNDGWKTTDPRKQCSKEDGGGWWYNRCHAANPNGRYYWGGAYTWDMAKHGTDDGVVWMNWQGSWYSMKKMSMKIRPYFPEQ
T1 sequence (P12799 25-444): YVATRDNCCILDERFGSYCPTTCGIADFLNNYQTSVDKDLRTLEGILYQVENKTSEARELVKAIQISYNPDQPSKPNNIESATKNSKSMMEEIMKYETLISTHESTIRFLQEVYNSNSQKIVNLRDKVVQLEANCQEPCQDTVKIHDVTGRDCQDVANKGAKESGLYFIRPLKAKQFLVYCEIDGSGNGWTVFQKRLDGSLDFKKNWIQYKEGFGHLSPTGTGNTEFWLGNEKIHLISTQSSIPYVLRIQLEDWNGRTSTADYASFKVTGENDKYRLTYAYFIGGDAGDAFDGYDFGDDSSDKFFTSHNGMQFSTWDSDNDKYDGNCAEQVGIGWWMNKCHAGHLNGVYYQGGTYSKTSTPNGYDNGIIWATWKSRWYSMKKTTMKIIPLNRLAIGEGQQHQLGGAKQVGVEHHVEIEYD

lysozyme = lysozyme (Gallus gallus, UniProt P00698); experiment: SPR adsorption of lysozyme to SAMs / grafted polymer films; type: binding; details: for % ML 3 min / dR/dt on: lysozyme; for % ML 3 min / dR/dt on / % Lys off: single-component SAMs (a) and mixed SAMs (b)
lysozyme, sequence (P00698 19-147): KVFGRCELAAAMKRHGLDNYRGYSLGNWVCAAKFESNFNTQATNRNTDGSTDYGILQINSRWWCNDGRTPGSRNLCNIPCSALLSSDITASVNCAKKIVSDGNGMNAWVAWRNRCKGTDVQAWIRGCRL

[2] = mixed SAM —CONRR′/—CO2H, 1 mg/mL fibrinogen flowed 3 min, relative to —CONH(CH2)10CH3/—CO2H SAM
[3] = mixed SAM —CONRR′/—CO2H, 1 mg/mL fibrinogen flowed 30 min
[4] = mixed SAM —CONRR′/—CO2H, 1 mg/mL lysozyme flowed 3 min
[5] = mixed SAM —CONRR′/—CO2H, 1 mg/mL lysozyme flowed 30 min

Compound | θco sessile ([1]; mixed SAM) | % Fiboff (percent decrease in adsorbed protein during 10 minute PBS wash) (fibrinogen; mixed SAM —CONRR′/—CO2H) | dR/dton fibrinogen (maximum initial rate of adsorption) (fibrinogen; mixed SAM —CONRR′/—CO2H) | % MLfib 3 min (fibrinogen; [2]) | % MLfib 30 min (fibrinogen; [3]) | % Lysoff (percent decrease in adsorbed protein during 10 minute PBS wash) (lysozyme; mixed SAM —CONRR′/—CO2H) | dR/dton lysozyme (maximum initial rate of adsorption) (lysozyme; mixed SAM —CONRR′/—CO2H) | % MLlys 3 min (lysozyme; [4]) | % MLlys 30 min (lysozyme; [5]) | also measured
C[N+](C)(C)CCN.[Cl-] | 31 degrees | 6.2 ± 1% | 300 ± 200 RU/sec | 17 ± 2% | 25 ± 4% | 95 ± 7% | 140 ± 40 RU/sec | 3.5 ± 0.2% | 3.9 ± 0.7% | 
CN1CCNCC1 | 49 degrees | 1.0 ± 0.2% | 50 ± 30 RU/sec | 8.2 ± 1% | 16 ± 0.2% | 170 ± 20% | 60 ± 40 RU/sec | 1.1 ± 0.2% | 1.0 ± 0.4% | 
O=CN1CCNCC1 | 38 degrees | 10 ± 2% | 200 ± 50 RU/sec | 23 ± 1% | 39 ± 1% | 73 ± 15% | 160 ± 50 RU/sec | 8 ± 0.3% | 12 ± 0.3% | 
CC(=O)N1CCNCC1 | 45 degrees | 12 ± 2% | 120 ± 70 RU/sec | 17 ± 1% | 38 ± 0.2% | 400 ± 5% | 440 ± 80 RU/sec | 7.8 ± 1% | 6.5 ± 0.2% | θco sessile [1]: 45 degrees; % ML 30 min (fibrinogen): 38 ±0.2%; dR/dt on (fibrinogen): 120 ±70 RU/sec; % ML 3 min (fibrinogen): 17 ±1%; % Fib off (fibrinogen): 12 ±2%; % ML 3 min (lysozyme; footnote b (30 minutes)): 7 ±0.2%; % ML 3 min (lysozyme): 8 ±1%; dR/dt on (lysozyme): 440 ±80 RU/sec; % Lys off (lysozyme): 400 ±5%
CNCCN(C)C(C)=O | 46 degrees | 15 ± 1% | 40 ± 10 RU/sec | 2.1 ± 0.3% | 12 ± 3% | 330 ± 15% | 170 ± 30 RU/sec | 0.5 ± 0.2% | 3.8 ± 2% | 
CC(=O)CCN | 70 degrees | 16 ± 1% | 1400 ± 260 RU/sec | 66 ± 0.3% | 74 ± 0.3% | 150 ± 10% | 2700 ± 400 RU/sec | 31 ± 6% | 71 ± 5% | 
CNCCN(C)C(=O)OC | 70 degrees | 20 ± 2% | 330 ± 70 RU/sec | 26 ± 0.2% | 58 ± 0.3% | 150 ± 2% | 670 ± 50 RU/sec | 4.3 ± 0.2% | 43 ± 3% | 
COC[C@H](OC)[C@H](OC)[C@H](OC)[C@@H](CN(C)C(=O)CCCCCCCCCCS)OC [Entry 4a] |  |  |  |  |  |  |  |  |  | % ML 30 min (fibrinogen): 0.7 ±0.1%; dR/dt on (fibrinogen): 30 ±14 RU/sec; % ML 3 min (fibrinogen): 0.2 ±0.1%; % Fib off (fibrinogen): 66 ±5%; % ML 3 min (lysozyme; footnote b (30 minutes)): 0.5 ±0.2%; % ML 3 min (lysozyme): 0.5 ±0.0%; dR/dt on (lysozyme): 29 ±20 RU/sec; % Lys off (lysozyme): 7 ±0%
CN(C)C(=O)CNC(=O)CNC(=O)CN [H2N(Gly)3N(CH3)2] (H-Gly-Gly-Gly-NMe2) |  | 21 ± 0.7% | 55 ± 40 RU/sec | 8 ± 1% | 22 ± 0.4% | 630 ± 4% | 620 ± 130 RU/sec | 2.1 ± 1.5% | 8.8 ± 0.5% | 
CNCC(=O)N(C)CC(=O)N(C)CC(=O)N(C)C [H(CH3)N(Sar)3N(CH3)2] (H-[Sar]-[Sar]-[Sar]-NMe2) |  |  | 60 ± 10 RU/sec | 0.7 ± 0.1% | 2.0 ± 0.1% |  | 70 ± 30 RU/sec | 0.6 ± 0.1% | 1.1 ± 0.3% | % ML 30 min (fibrinogen): 2.0%; dR/dt on (fibrinogen): 60 RU/sec; % ML 3 min (fibrinogen): 0.7%; % ML 3 min (lysozyme; footnote b (30 minutes)): 1.1%; % ML 3 min (lysozyme): 0.6%; dR/dt on (lysozyme): 70 RU/sec
CNCC(=O)N(C)CC(=O)N(C)CC(=O)N(C)CC(=O)N(C)C [H(CH3)N(Sar)4N(CH3)2] (H-[Sar][Sar][Sar][Sar]-NMe2) |  |  | 70 ± 20 RU/sec | 0.5 ± 0.0% | 1.7 ± 0.2% | 70 ± 30% | 80 ± 40 RU/sec | 0.8 ± 0.1% | 1.5 ± 0.7% | 
CNCC(=O)N(C)CC(=O)N(C)CC(=O)N(C)CC(=O)N(C)CC(=O)N(C)C [H(CH3)N(Sar)5N(CH3)2] |  |  | 50 ± 10 RU/sec | 0.6 ± 0.3% | 1.3 ± 0.1% | 14 ± 4% | 50 ± 20 RU/sec | 0.8 ± 0.7% | 1.0 ± 0.2% | 
N#CCCNCCC#N [HN(CH2CH2CN)2] |  | 20 ± 0.7% | 590 ± 240 RU/sec | 43 ± 1.0% | 58 ± 1.6% | 290 ± 8% | 2700 ± 160 RU/sec | 17 ± 1.0% | 40 ± 2.0% | 
N#CCNCC#N [HN(CH2CN)2] |  | 7.9 ± 0.9% | 2200 ± 500 RU/sec | 54 ± 3.8% | 73 ± 3% | 110 ± 1% | 2200 ± 500 RU/sec | 36 ± 0.5% | 92 ± 0.3% | 
CNC [HN(CH3)2] |  |  |  |  |  |  |  |  |  | % Fiboff (percent decrease in adsorbed protein during 10 minute PBS wash) (fibrinogen): 24 ± 0.1%; % MLfib 3 min (fibrinogen): 26 ± 6%; % MLfib 30 min (fibrinogen): 54 ± 0.8%; dR/dton fibrinogen (maximum initial rate of adsorption) (fibrinogen): 160 ± 30 RU/sec; % Lysoff (percent decrease in adsorbed protein during 10 minute PBS wash) (lysozyme): 120 ± 1%; % MLlys 3 min (lysozyme): 43 ± 16%; % MLlys 30 min (lysozyme): 80 ± 3%; dR/dton lysozyme (maximum initial rate of adsorption) (lysozyme): 2400 ± 260 RU/sec
(CH3)2N(Sar)3-NHCO(CH2)15SH [Entry 5a] |  |  |  |  |  |  |  |  |  | % ML 30 min (fibrinogen): 2.0%; dR/dt on (fibrinogen): 24 RU/sec; % ML 3 min (fibrinogen): 0.7%; % Fib off (fibrinogen): 5.7%; % ML 3 min (lysozyme; footnote b (30 minutes)): 2.0%; % ML 3 min (lysozyme): 1.8%; dR/dt on (lysozyme): 33 RU/sec; % Lys off (lysozyme): 18%
